Values after ≈ are worked out from the molar mass of the structure shown.
Legend:
Artemia = assay: (§1) Toxicity in brine shrimp; format: organism-based; settings: in vivo
[1] = as §1; format: organism-based; settings: artemia, in vivo

C[C@]12CCC[C@](C)(C(=O)O)[C@@H]1CC[C@@]1(C)C3=C(CC[C@H]21)COC3=O
Activity (Artemia): Non-toxic

COC1O[C@H](OC)[C@]2(O)[C@]1(O)CC[C@@H]1[C@@]3(C)CCC[C@](C)(C(=O)O)[C@@H]3CC[C@]12C (stereo partly specified)
Activity (Artemia): Non-toxic

C[C@]12CCC[C@](C)(C(=O)O)[C@@H]1CC[C@@]1(C)c3cocc3CC[C@H]21
LC50 [1]: 10 µg/mL (≈ 31.6 µM)

CO[C@H]1OC(=O)C2=C1[C@]1(C)CC[C@@H]3[C@](C)(CCC[C@]3(C)C(=O)O)[C@H]1CC2
Activity (Artemia): Non-toxic

CO[C@@H]1OC(=O)C2=C1CC[C@@H]1[C@@]3(C)CCC[C@](C)(C(=O)O)[C@@H]3CC[C@@]21C
Activity (Artemia): Non-toxic

C[C@]12CCC[C@](C)(C(=O)O)[C@@H]1CC[C@@]1(C)C3=C(CC[C@H]21)C(=O)OC3
Activity (Artemia): Non-toxic
